From patent US9321790B2, “Pyrimidinone derivatives as antimalarial agents” (SANOFI, priority 2012, dated 2016) come the findings set out here.

Read-outs that look alike come from different tables or passages of the source. Bounds are passed on as bounds.

In one experiment the target is human PI3Kα (Homo sapiens (Human), UniProt P42336). In words: Human PI3Kα activity test (luciferin/luciferase ATP consumption, KinaseGlo). The experiment is classed as biochemical. Background: Kinase-Glo reads ATP consumption through a luciferase reaction.
Experiment [1] has as its system Plasmodium falciparum (strain NF54). Nature of the experiment: Antimalarial activity test: growth of Plasmodium falciparum in infected human erythrocytes, 3H-hypoxanthine incorporation. The class given is cell-based. The conditions noted are these: strain NF54 sensitive to chloroquine, 72 h total incubation. Summed up:
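Chloroquine-sensitive NF54 parasites in human erythrocytes (1.25% hematocrit, 0.15% parasitemia) were grown in hypoxanthine-free RPMI 1640 with HEPES and Albumax II, with compound in twofold serial dilution, at 37 °C under 93% N2/4% CO2/3% O2. After 48 h, 3H-hypoxanthine (0.5 μCi) was added for 24 h. Scintillation counts versus drug-free control gave IC50.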

[2] abbreviates: PI3Kα (p110α/p85α), 50 μM PIP2, 2 μM ATP, 90 minutes, read-out: IC50 Human PI3Kα.
Setting [3] is: Plasmodium falciparum, Erythrocyte.

Chain of human PI3Kα (P42336 whole entry): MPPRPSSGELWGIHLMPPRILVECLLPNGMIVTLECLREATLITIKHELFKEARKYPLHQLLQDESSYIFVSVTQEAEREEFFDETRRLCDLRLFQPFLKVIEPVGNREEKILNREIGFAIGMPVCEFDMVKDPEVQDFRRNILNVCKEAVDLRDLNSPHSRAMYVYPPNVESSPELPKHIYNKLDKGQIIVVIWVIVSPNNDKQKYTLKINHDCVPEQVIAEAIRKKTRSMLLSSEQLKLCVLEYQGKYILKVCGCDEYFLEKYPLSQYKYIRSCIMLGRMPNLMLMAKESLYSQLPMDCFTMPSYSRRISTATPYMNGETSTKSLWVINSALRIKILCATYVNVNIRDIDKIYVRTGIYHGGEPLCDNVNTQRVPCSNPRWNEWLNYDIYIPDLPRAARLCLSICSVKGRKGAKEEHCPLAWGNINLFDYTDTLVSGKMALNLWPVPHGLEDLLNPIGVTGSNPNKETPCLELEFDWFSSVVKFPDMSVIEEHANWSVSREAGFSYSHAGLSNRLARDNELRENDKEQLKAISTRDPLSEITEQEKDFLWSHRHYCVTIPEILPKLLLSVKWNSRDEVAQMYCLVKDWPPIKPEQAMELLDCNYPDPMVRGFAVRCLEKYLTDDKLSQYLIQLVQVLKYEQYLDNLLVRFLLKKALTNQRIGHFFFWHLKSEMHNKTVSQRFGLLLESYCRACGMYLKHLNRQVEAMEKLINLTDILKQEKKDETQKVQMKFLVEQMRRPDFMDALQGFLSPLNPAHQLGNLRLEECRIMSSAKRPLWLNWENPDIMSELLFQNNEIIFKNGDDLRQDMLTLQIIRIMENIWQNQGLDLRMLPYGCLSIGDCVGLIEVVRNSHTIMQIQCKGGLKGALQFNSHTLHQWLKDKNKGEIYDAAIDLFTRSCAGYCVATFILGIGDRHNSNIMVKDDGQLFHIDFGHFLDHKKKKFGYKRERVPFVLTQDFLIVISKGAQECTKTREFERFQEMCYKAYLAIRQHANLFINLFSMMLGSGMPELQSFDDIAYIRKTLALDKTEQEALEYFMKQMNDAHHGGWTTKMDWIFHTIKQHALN
Chain of human PI3Kα (P27986 whole entry partner): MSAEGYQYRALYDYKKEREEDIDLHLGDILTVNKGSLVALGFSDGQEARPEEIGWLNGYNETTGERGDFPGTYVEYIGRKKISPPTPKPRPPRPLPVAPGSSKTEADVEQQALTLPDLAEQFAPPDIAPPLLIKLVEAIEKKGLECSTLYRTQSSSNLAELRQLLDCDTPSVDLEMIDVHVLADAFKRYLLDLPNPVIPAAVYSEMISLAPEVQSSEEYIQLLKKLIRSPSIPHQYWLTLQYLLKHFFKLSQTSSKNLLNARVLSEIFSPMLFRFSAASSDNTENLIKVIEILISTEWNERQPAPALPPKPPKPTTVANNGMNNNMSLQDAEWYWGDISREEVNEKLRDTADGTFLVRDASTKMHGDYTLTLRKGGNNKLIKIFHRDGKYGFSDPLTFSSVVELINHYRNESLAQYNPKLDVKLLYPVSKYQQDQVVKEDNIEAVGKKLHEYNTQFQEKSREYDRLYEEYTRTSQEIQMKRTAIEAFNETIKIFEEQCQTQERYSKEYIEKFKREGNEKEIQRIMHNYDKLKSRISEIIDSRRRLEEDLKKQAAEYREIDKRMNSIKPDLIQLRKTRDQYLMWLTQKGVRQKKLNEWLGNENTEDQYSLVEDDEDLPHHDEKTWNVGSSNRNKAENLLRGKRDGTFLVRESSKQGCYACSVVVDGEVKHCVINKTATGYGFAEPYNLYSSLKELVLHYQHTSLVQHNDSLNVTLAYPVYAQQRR
Method for human PI3Kα: The test uses a luciferin/luciferase system to measure the concentration of ATP and its consumption during the enzymatic reaction.
After 90 minutes, the reaction is quenched by adding 20 μl/well of KinaseGlo reagent (Promega V6713). After 10 minutes in the dark, the luminescence is read using a PHERAStar microplate reader (reading at 0.8 sec/well).

For orientation: IC50 means the concentration that gives 50% inhibition. Take `O=C(CN1c2nc(N3C[C@@H]4C[C@H]3CO4)cc(=O)n2CC[C@H]1C(F)(F)F)N1CC2CCC(C1)O2` [Compound 98, (8S)-2-(1S,4S)-2-Oxa-5-azabicyclo[2.2.1]hept-5-yl-9-[2-(8-oxa-3-azabicyclo[3.2.1]oct-3-yl)-2-oxoethyl]-8-trifluoromethyl-6,7,8,9-tetrahydropyrimido[1,2-a]pyrimidin-4-one]: the IC50 on human PI3Kα (setting [2]) was over 10000 nM; in experiment [1], 140 nM.
For `O=C(CN1c2nc(N3C[C@@H]4C[C@H]3CO4)cc(=O)n2CC[C@H]1C(F)(F)F)N1C2CCC1COC2` [Compound 99, (8S)-2-(1S,4S)-2-oxa-5-azabicyclo[2.2.1]hept-5-yl-9-[2-(3-oxa-8-azabicyclo[3.2.1]oct-8-yl)-2-oxoethyl]-8-trifluoromethyl-6,7,8,9-tetrahydropyrimido[1,2-a]pyrimidin-4-one], the IC50 on human PI3Kα was over 10000 nM; in experiment [1] (setting [3]) it was 170 nM.
Consider `O=c1cc(N2C[C@@H]3C[C@H]2CO3)nc2n1CC[C@@H](C(F)(F)F)N2CCC1(O)CCCC1` [Compound 100, (8S)-9-[2-(1-Hydroxycyclopentyl)ethyl]-2-(1S,4S)-2-oxa-5-azabicyclo[2.2.1]hept-5-yl-8-trifluoromethyl-6,7,8,9-tetrahydropyrimido[1,2-a]pyrimidin-4-one], for which the IC50 at human PI3Kα (setting [2]) came out at 1980 nM; in experiment [1] (setting [3]) it was 9 nM.
For `O=c1cc(N2C[C@@H]3C[C@H]2CO3)nc2n1CC[C@@H](C(F)(F)F)N2CC1(O)CCCC1` [Compound 101, (8S)-9-(1-Hydroxycyclopentylmethyl)-2-(1S,4S)-2-oxa-5-azabicyclo[2.2.1]hept-5-yl-8-trifluoromethyl-6,7,8,9-tetrahydropyrimido[1,2-a]pyrimidin-4-one] the same measures were 450 nM and 10 nM.
For `O=c1cc(N2C[C@@H]3C[C@H]2CO3)nc2n1CC[C@@H](C(F)(F)F)N2CCC(O)(C1CC1)C1CC1` [Compound 102, (8S)-9-(3,3-Dicyclopropyl-3-hydroxypropyl)-2-(1S,4S)-2-oxa-5-azabicyclo[2.2.1]hept-5-yl-8-trifluoromethyl-6,7,8,9-tetrahydropyrimido[1,2-a]pyrimidin-4-one] the same measures were 2500 nM and 5 nM.
On to `O=c1cc(N2C[C@@H]3C[C@H]2CO3)nc2n1CC[C@@H](C(F)(F)F)N2CC(O)(C1CC1)C1CC1` [Compound 103, (8S)-9-(2,2-Dicyclopropyl-2-hydroxyethyl)-2-(1S,4S)-2-oxa-5-azabicyclo[2.2.1]hept-5-yl-8-trifluoromethyl-6,7,8,9-tetrahydropyrimido[1,2-a]pyrimidin-4-one], for which the results for the IC50 (at human PI3Kα (setting [2]); in experiment [1] (setting [3])) were 840 nM and 75 nM, respectively.
For `O=c1cc(N2C[C@@H]3C[C@H]2CO3)nc2n1CC[C@@H](C(F)(F)F)N2CC1(O)CC1` [Compound 104, (8S)-9-(1-hydroxycyclopropylmethyl)-2-(1S,4S)-2-oxa-5-azabicyclo[2.2.1]hept-5-yl-8-trifluoromethyl-6,7,8,9-tetrahydropyrimido[1,2-a]pyrimidin-4-one] the same measures were 930 nM and 12 nM.
Regarding `O=c1cc(N2C[C@@H]3C[C@H]2CO3)nc2n1CC[C@@H](C(F)(F)F)N2CCC1(O)CC1` [Compound 105, (8S)-9-[2-(1-Hydroxycyclopropyl)ethyl]-2-(1S,4S)-2-oxa-5-azabicyclo[2.2.1]hept-5-yl-8-trifluoromethyl-6,7,8,9-tetrahydropyrimido[1,2-a]pyrimidin-4-one], the IC50 is 1900 nM at human PI3Kα (setting [2]) and 24 nM in experiment [1] (setting [3]).
Taken in the same sequence, the figures for `O=c1cc(N2C[C@@H]3C[C@H]2CO3)nc2n1CC[C@@H](C(F)(F)F)N2Cc1cccc2ncccc12` [Compound 106, (8S)-2-(1S,4S)-2-oxa-5-azabicyclo[2.2.1]hept-5-yl-9-quinolin-5-ylmethyl-8-trifluoromethyl-6,7,8,9-tetrahydropyrimido[1,2-a]pyrimidin-4-one] were over 10000 nM and 13 nM.
Taken in the same sequence, the figures for `Cc1nscc1C(=O)CN1c2nc(N3C[C@@H]4C[C@H]3CO4)cc(=O)n2CC[C@H]1C(F)(F)F` [Compound 107, (8S)-9-[2-(3-Methylisothiazol-4-yl)-2-oxoethyl]-2-(1S,4S)-2-oxa-5-azabicyclo[2.2.1]hept-5-yl-8-trifluoromethyl-6,7,8,9-tetrahydropyrimido[1,2-a]pyrimidin-4-one] were over 10000 nM and 100 nM.
For `CS(=O)(=O)c1ccc(C(=O)CN2c3nc(N4C[C@@H]5C[C@H]4CO5)cc(=O)n3CC[C@H]2C(F)(F)F)cc1` [Compound 108, (8S)-9-[2-(4-Methanesulfonylphenyl)-2-oxoethyl]-2-(1S,4S)-2-oxa-5-azabicyclo[2.2.1]hept-5-yl-8-trifluoromethyl-6,7,8,9-tetrahydropyrimido[1,2-a]pyrimidin-4-one] the same measures were over 10000 nM and 86 nM.
Consider `O=c1cc(N2C[C@@H]3C[C@H]2CO3)nc2n1CC[C@@H](C(F)(F)F)N2Cc1cccc2cnccc12` [Compound 109, (8S)-9-Isoquinolin-5-ylmethyl-2-(1S,4S)-2-oxa-5-azabicyclo[2.2.1]hept-5-yl-8-trifluoromethyl-6,7,8,9-tetrahydropyrimido[1,2-a]pyrimidin-4-one], for which the values for the half-inhibitory concentration (IC50) (at human PI3Kα (setting [2]); in experiment [1] (setting [3])) were 7800 nM and 79 nM, respectively.
For `O=C(CN1c2nc(N3C[C@@H]4C[C@H]3CO4)cc(=O)n2CC[C@H]1C(F)(F)F)N1CCOCC1` [Compound 110, (8S)-9-(2-Morpholin-4-yl-2-oxoethyl)-2-(1S,4S)-2-oxa-5-azabicyclo[2.2.1]hept-5-yl-8-trifluoromethyl-6,7,8,9-tetrahydropyrimido[1,2-a]pyrimidin-4-one] the same measures were over 10000 nM and 330 nM.
On to `O=c1cc(N2C[C@@H]3C[C@H]2CO3)nc2n1CC[C@@H](C(F)(F)F)N2CCc1ccc(OCCN2CCOCC2)cc1` [Compound 111, (8S)-9-{2-[4-(2-Morpholin-4-ylethoxy)phenyl]ethyl}-2-(1S,4S)-2-oxa-5-azabicyclo[2.2.1]hept-5-yl-8-trifluoromethyl-6,7,8,9-tetrahydropyrimido[1,2-a]pyrimidin-4-one], for which the IC50 at human PI3Kα (setting [2]) was 330 nM; in experiment [1] (setting [3]), 5 nM.
For `CON(C)C(=O)CN1c2nc(N3C[C@@H]4C[C@H]3CO4)cc(=O)n2CC[C@H]1C(F)(F)F` [Compound 112, N-Methoxy-N-methyl-2-((S)-8-(1S,4S)-2-oxa-5-azabicyclo[2.2.1]hept-5-yl-6-oxo-2-trifluoromethyl-3,4-dihydro-2H,6H-pyrimido[1,2-a]pyrimidin-1-yl)acetamide], the figures for the IC50 (at human PI3Kα (setting [2]); in experiment [1]) were over 10000 nM and 200 nM, respectively.
Consider `O=C(CN1c2nc(N3C[C@@H]4C[C@H]3CO4)cc(=O)n2CC[C@H]1C(F)(F)F)c1ccc2nccn2c1` [Compound 113, (8S)-9-(2-Imidazo[1,2-a]pyrid-6-yl-2-oxoethyl)-2-(1S,4S)-2-oxa-5-azabicyclo[2.2.1]hept-5-yl-8-trifluoromethyl-6,7,8,9-tetrahydropyrimido[1,2-a]pyrimidin-4-one], for which the IC50 at human PI3Kα (setting [2]) was over 10000 nM; in experiment [1] (setting [3]), 430 nM.
For the compound `O=C(CN1c2nc(N3C[C@@H]4C[C@H]3CO4)cc(=O)n2CC[C@H]1C(F)(F)F)c1ccc(OC(F)F)nc1` [Compound 114, (S)-9-[2-(6-difluoromethoxypyrid-3-yl)-2-oxoethyl]-2-(1S,4S)-2-oxa-5-azabicyclo[2.2.1]hept-5-yl-8-trifluoromethyl-6,7,8,9-tetrahydropyrimido[1,2-a]pyrimidin-4-one], the IC50 at human PI3Kα (setting [2]) was over 10000 nM; in experiment [1] (setting [3]) it was 245 nM.
As to `O=C(COc1ccc(CCN2c3nc(N4C[C@@H]5C[C@H]4CO5)cc(=O)n3CC[C@H]2C(F)(F)F)cc1)N1CCOCC1` [Compound 115, (S)-9-{2-[4-(2-Morpholin-4-yl-2-oxoethoxy)phenyl]ethyl}-2-(1S,4S)-2-oxa-5-azabicyclo[2.2.1]hept-5-yl-8-trifluoromethyl-6,7,8,9-tetrahydropyrimido[1,2-a]pyrimidin-4-one], the IC50 was determined as 590 nM at human PI3Kα (setting [2]) and 3 nM in experiment [1] (setting [3]).
Taken in the same sequence, the figures for `Cn1cc(CN2c3nc(N4C[C@@H]5C[C@H]4CO5)cc(=O)n3CC[C@H]2C(F)(F)F)c(C(F)(F)F)n1` [Compound 116, (8S)-9-(1-Methyl-3-trifluoromethyl-1H-pyrazol-4-ylmethyl)-2-(1S,4S)-2-oxa-5-azabicyclo[2.2.1]hept-5-yl-8-trifluoromethyl-6,7,8,9-tetrahydropyrimido[1,2-a]pyrimidin-4-one] were over 10000 nM and 117 nM.
For `CN(C)CCOc1ccc(CCN2c3nc(N4C[C@@H]5C[C@H]4CO5)cc(=O)n3CC[C@H]2C(F)(F)F)cc1` [Compound 117, (8S)-9-{2-[4-(2-Dimethylaminoethoxyl)phenyl]ethyl}-2-(1S,4S)-2-oxa-5-azabicyclo[2.2.1]hept-5-yl-8-trifluoromethyl-6,7,8,9-tetrahydropyrimido[1,2-a]pyrimidin-4-one] the same measures were 380 nM and 6 nM.
On to `O=CN1CCC(C(=O)CN2c3nc(N4C[C@@H]5C[C@H]4CO5)cc(=O)n3CC[C@H]2C(F)(F)F)CC1` [Compound 118, 4-[2-((S)-8-(1S,4S)-2-Oxa-5-azabicyclo[2.2.1]hept-5-yl-6-oxo-2-trifluoromethyl-3,4-dihydro-2H,6H-pyrimido[1,2-a]pyrimidin-1-yl)acetyl]piperidine-1-carbaldehyde], for which the concentration for half-maximal inhibition (IC50) at human PI3Kα (setting [2]) was over 10000 nM; in experiment [1], 15 nM.
On to `CC(=O)N1CCC(C(=O)CN2c3nc(N4C[C@@H]5C[C@H]4CO5)cc(=O)n3CC[C@H]2C(F)(F)F)CC1` [Compound 119, (8S)-9-[2-(1-Acetylpiperid-4-yl)-2-oxoethyl]-2-(1S,4S)-2-oxa-5-azabicyclo[2.2.1]hept-5-yl-8-trifluoromethyl-6,7,8,9-tetrahydropyrimido[1,2-a]pyrimidin-4-one], for which the IC50 at human PI3Kα (setting [2]) is over 10000 nM; in experiment [1] (setting [3]), 30 nM.
